Data taken from ChEMBL document CHEMBL1201862, “PubChem BioAssay data set” (2004).
One block for each compound: values may come before it. Calls of active or inactive are those of the source. For most assays here, no stated cut-off is given here; in the data, actives have a measured AC50 and inactives only a lower limit.

How the values were obtained:
HEK293 = experiment: cells; type: functional, cell-based; settings: Homo sapiens
[1] = biological target: T1, Nuclear receptor subfamily 0 group B member 1 (Homo sapiens, UniProt P51843); experiment: Luminescence-based cell-based high throughput dose response assay for inhibitors of the orphan nuclear receptor subfamily 0, group B, member 1 (DAX1; NR0B1). [Related pubchem assays (depositor defined):AID504766, AID504790]; type: functional
T1 sequence (P51843 whole entry): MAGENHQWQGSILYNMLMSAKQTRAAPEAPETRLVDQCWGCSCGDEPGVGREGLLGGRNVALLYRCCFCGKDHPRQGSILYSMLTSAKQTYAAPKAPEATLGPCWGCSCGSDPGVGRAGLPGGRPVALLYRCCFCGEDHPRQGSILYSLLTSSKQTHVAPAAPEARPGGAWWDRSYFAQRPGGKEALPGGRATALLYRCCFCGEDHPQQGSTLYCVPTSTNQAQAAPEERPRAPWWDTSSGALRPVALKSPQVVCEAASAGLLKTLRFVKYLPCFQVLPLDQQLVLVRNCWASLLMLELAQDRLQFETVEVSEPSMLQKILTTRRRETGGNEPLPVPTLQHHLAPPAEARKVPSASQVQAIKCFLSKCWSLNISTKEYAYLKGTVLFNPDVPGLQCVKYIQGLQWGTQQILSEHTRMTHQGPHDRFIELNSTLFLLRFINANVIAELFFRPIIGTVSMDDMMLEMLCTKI

Escherichia coli = experiment: microbe, parasite or virus in culture
[2] = biological target: T2, Beta-adrenergic receptor kinase 1 (Homo sapiens, UniProt P25098); experiment: blockers of aptamer binding to GRK2 – biochemical, flow cytometry beads, FAM-aptamer, powder set 1, dose response (AID 588720)
T2 sequence (P25098 whole entry): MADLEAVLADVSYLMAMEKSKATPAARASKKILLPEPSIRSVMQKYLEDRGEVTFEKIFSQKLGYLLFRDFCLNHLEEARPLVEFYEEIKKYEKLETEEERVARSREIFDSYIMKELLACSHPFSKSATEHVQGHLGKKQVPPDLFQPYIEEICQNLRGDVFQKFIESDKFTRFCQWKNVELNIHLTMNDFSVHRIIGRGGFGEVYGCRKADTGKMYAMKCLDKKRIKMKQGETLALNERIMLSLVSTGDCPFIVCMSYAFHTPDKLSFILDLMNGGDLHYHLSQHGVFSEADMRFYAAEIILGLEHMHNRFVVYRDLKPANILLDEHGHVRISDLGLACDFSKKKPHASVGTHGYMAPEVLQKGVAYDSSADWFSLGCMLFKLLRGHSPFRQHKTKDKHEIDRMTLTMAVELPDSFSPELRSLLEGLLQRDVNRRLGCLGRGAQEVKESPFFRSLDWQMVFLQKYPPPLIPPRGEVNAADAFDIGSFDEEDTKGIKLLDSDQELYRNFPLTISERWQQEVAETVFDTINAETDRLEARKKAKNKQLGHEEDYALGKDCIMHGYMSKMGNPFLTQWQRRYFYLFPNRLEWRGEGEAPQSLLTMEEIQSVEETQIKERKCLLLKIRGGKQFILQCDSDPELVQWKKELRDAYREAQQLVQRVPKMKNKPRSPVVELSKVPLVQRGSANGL

CAAX prenyl protease 2 [3] = biological target: CAAX prenyl protease 2 (Homo sapiens, UniProt Q9Y256); experiment: inhibition of Ras-converting CAAX protease Rce1 – biochemical, yeast membranes, quenched-peptide fluorescence, cherry-pick, dose response (AID 588849)
Sequence of CAAX prenyl protease 2 (Homo sapiens, UniProt Q9Y256) (Q9Y256 whole entry): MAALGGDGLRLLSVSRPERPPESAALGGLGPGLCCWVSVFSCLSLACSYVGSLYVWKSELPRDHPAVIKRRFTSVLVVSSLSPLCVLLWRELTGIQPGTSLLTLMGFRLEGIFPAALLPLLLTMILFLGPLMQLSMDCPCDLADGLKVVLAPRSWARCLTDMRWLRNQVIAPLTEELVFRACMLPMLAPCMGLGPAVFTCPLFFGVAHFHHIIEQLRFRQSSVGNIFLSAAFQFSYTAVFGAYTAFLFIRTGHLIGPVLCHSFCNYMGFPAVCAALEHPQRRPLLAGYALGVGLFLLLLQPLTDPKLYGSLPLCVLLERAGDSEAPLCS

Trypsin = Trypsin (Sus scrofa, UniProt P00761); experiment: trypsin protease activity blockade – biochemical, quenched peptide fluorescence, cherry-pick, selectivity assay for Rce1 protease inhibitor project, dose response (AID 488789)
Sequence of Trypsin (P00761 whole entry): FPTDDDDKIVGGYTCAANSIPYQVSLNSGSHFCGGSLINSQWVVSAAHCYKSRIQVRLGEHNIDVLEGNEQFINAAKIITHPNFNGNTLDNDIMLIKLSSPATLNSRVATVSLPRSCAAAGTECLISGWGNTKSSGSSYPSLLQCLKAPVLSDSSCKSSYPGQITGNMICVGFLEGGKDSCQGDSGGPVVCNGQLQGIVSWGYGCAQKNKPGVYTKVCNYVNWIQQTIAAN

Large T antigen = Large T antigen (Simian virus 40, UniProt P03070); type: functional, Betapolyomavirus macacae;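 further: Confirmatory-stage PubChem screen for compounds that inhibit SV40 T antigen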
Sequence of Large T antigen (P03070 whole entry): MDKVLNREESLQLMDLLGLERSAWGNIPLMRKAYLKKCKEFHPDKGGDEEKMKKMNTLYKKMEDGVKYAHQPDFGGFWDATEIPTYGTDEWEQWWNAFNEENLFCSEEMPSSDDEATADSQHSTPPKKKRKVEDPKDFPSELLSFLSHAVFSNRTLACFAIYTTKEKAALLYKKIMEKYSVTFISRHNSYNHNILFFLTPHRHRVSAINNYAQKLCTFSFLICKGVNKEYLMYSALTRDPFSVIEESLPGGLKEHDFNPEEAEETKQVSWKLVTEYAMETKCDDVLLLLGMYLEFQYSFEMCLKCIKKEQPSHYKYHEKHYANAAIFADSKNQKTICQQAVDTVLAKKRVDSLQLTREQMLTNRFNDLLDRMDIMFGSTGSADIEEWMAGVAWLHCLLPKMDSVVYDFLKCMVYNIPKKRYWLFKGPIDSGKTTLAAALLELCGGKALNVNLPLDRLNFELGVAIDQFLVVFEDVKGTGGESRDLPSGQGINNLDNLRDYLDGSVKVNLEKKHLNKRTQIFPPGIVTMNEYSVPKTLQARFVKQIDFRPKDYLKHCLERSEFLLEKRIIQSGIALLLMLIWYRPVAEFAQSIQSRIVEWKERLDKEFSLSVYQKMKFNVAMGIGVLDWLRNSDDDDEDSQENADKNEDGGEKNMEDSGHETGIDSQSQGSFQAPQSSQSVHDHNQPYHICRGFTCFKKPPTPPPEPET

CAAX prenyl protease 2 [4] = biological target: T3, CAAX prenyl protease 2 (Saccharomyces cerevisiae S288c, UniProt Q03530); type: biochemical
T3 sequence (Q03530 whole entry): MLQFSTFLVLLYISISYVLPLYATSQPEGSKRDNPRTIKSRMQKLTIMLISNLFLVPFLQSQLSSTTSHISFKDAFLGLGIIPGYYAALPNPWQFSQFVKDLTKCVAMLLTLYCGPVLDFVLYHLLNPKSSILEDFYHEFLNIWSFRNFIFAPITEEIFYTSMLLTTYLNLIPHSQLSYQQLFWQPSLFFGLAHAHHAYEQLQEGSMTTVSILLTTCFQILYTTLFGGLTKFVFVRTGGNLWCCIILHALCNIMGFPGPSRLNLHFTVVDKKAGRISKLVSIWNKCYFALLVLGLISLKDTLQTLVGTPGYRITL

INS1 [5] = experiment: beta-cell survival under cytokine stress – INS-1E, ATP luminescence, dry powder, dose response (AID 488844); type: functional, cell-based; settings: Rattus norvegicus
INS1 [6] = experiment: INS-1E mitochondrial potential rescue under cytokines – cell-based, JC-1 fluorescence ratio, dry powder, dose response (AID 488931); type: functional; settings: Rattus norvegicus
HeLa = experiment: ATP-based viability loss in HeLa cells – cell-based, CellTiter-Glo luminescence, cherry-pick samples, cytotoxicity control for MITF activator project, dose response (AID 540259); type: functional; settings: Homo sapiens

SMILES: O=C(CCCC(=O)N1CCN(c2ccccc2F)CC1)c1ccccc1
- IC50 (HEK293): > 67.5 µM (inactive)
- IC50 [1]: > 67.5 µM (inactive)

SMILES: COc1ccc(-n2c(Cc3cccn3C)nnc2SCC(=O)Nc2ccc(C(C)=O)cc2)cc1
- AC50 (Escherichia coli): 56.8 µM (active)

- EC50 [2]: 6.56 µM (active)
SMILES: COC(=O)c1ccc(NC(=O)CCS(=O)(=O)c2ccc(Br)cc2)cc1

- AC50 (CAAX prenyl protease 2 [3]): 7.4 µM (active)
- AC50 (Trypsin): 5.17 µM (active)
- IC50 (Large T antigen): 19.4 µM (active)
- AC50 (CAAX prenyl protease 2 [4]): 9.61 µM (active)
SMILES: CN1CC(C(=O)O)Cc2c1ccc1ccccc21 (stereo unspecified)

SMILES: Cc1ccc(S(=O)(=O)N(C)C[C@@H]2Oc3c(NC(=O)Nc4ccccc4)cccc3C(=O)N([C@@H](C)CO)C[C@H]2C)cc1
- AC50 (INS1 [5]): 27 µM (active)
- AC50 (INS1 [6]): 81.6 µM (active)

SMILES: CCCc1cc(-c2ccc3c(c2)COc2c4ccccc4nn2-3)on1
- AC50 (HeLa): 40 µM (active)
